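96-well plates; 48 h exposure; 5 concentrations. Endpoints by linear interpolation between flanking doses. Not reached: highest tested concentration assigned. The concentration for full growth arrest is given as TGI.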
Tests used:
Assay in all cases: NCI-60 cell line screen, 48 h
786-0 renal = system: 786-0 renal
A498 renal = system: A498 renal
KM12 colon = system: KM12 colon
M14 melanoma = system: M14 melanoma
OVCAR-5 ovarian = system: OVCAR-5 ovarian
PC-3 prostate = system: PC-3 prostate
SF-268 CNS = system: SF-268 CNS
SF-295 CNS = system: SF-295 CNS
SNB-19 CNS = system: SNB-19 CNS

| SMILES | TGI (786-0 renal) [µM] | TGI (A498 renal) [µM] | TGI (KM12 colon) [µM] | TGI (M14 melanoma) [µM] | TGI (OVCAR-5 ovarian) [µM] | TGI (PC-3 prostate) [µM] | TGI (SF-268 CNS) [µM] | TGI (SF-295 CNS) [µM] | TGI (SNB-19 CNS) [µM] |
| --- | --- | --- | --- | --- | --- | --- | --- | --- | --- |
| CSC1(SC)CCCCCCCCCCC1 | > 100 | > 100 | > 100 | > 100 | > 100 | > 100 | > 100 | 97.1 | > 100 |
| CN(C)CCNc1nc2ccccc2c2c1C(=O)c1ccccc1-2 | 3.66 | 1.24 | 2.11 | 1.67 | 5.25 | 1.9 | 2.4 | 3.31 | 5.42 |
| O=C(O)c1ccccc1-c1ccccc1C(=O)c1ccccc1 | > 100 | > 100 | > 100 | > 100 | > 100 | > 100 | > 100 | > 100 | > 100 |
| C[C@@H](C[C@@H](O)[C@H](O)C(C)(C)O)[C@H]1CC=C2[C@]3(C)[C@H](O)C[C@H]4C(C)(C)[C@H](O)CC[C@]4(C)[C@H]3CC[C@@]21C | 28.2 | 28.5 | 32.8 | 28.6 | 33.4 | 28 | 32.2 | 28.6 | 32.7 |
| C/C(=C/CC[C@](C)(OC1OC(CO)C(O)C(O)C1O)[C@H]1CC[C@]2(C)[C@@H]1CC[C@@H]1[C@@]3(C)CC[C@H](O)C(C)(C)[C@@H]3C[C@H](O)[C@]12C)CO (some centres not stated) | 61.2 | > 100 | 47.8 | > 100 | > 100 | 98.2 | 90.7 | 35.1 | 56.5 |
| COc1cc(C2S/C(=C/c3ccccc3)C(=O)N2c2ccc(Cl)cc2)cc(OC)c1OC (configuration not stated) | > 100 | > 100 | > 100 | > 46 | > 100 | > 84.4 | > 100 | > 100 | > 100 |
| C/C=C\C(CC(=O)O)CC(=O)NCCC1CN(S(=O)(=O)C(F)(F)F)c2ccccc21 (configuration not stated) | > 100 | > 100 | > 100 | > 100 | > 100 | > 100 | > 100 | > 100 | > 100 |
| CCOC(=O)Cc1nc2c(=O)[nH]cnc2n1C1OC(COC(C)=O)C(OC(C)=O)C1OC(C)=O (configuration not stated) | > 100 | > 100 | > 100 | > 100 | > 100 | > 100 | > 100 | > 100 | > 100 |
| CCCCCCCC(CC(=O)O)OC(=O)CC(CCCCCCC)OC1OC(C)C(O)C(O)C1OC1OC(C)C(O)C(O)C1O (configuration not stated) | > 100 | > 100 | > 100 | > 100 | > 100 | > 100 | > 100 | > 100 | > 100 |
| COC(=O)c1cc2c3c(c(C(C)=O)c(OC)c2[nH]1)NCC3 | > 50 | > 50 | > 50 | > 50 | > 50 | > 50 | > 50 | > 50 | > 50 |
| O=C(CCCN1CCc2[nH]c3cc(F)ccc3c2C1)c1ccc(F)cc1 | 26.6 | 24.4 | 26.9 | 22.2 | 24.7 | 25.7 | 26.7 | 32.7 | > 100 |
| CCC1(O)CN(CCOC)[C@H]2C[C@@H]1C(=O)c1[nH]c3ccccc3c12 (some centres not stated) | > 100 | > 100 | > 100 | > 100 | > 100 | > 100 | > 100 | > 100 | > 100 |
| CNC(=O)OCC1=C(COC(=O)NC)CN(c2ccccc2)C1 | > 100 | > 100 | > 100 | > 100 | > 100 | > 100 | > 100 | > 100 | > 100 |
| C=C1C(=O)O[C@H]2C(=O)[C@H](C)CCC[C@@](C)(O)/C=C\C[C@@]3(C)O[C@@H]3C[C@@H]12 | 25 | 56.1 | 39.3 | 24 | 3.64 | 38.6 | 50.8 | 17.5 | > 100 |
| Cn1c(=O)c2[nH]c(N/N=C3/SCC(=O)N3Cc3ccccc3)nc2n(C)c1=O | 88.4 | > 100 | > 100 | > 100 | > 100 | > 100 | > 100 | > 100 | > 100 |
| CCOP(=O)(OCC)C(F)(F)CC1CCCCC1 | > 10 | > 10 | > 10 | > 10 | > 10 | > 10 | > 10 | > 10 | > 10 |
| COc1ccccc1OC/C(N=Cc1ccncc1)=N/NC(=O)c1ccncc1 | > 100 | > 100 | > 100 | > 100 | > 100 | > 100 | > 100 | > 100 | > 100 |
| COc1cccc(N2N=C3c4ccccc4-n4c(nc5ccccc54)C3C2N)c1 (configuration not stated) | > 100 | > 100 | > 100 | > 100 | > 100 | > 100 | > 100 | > 100 | > 100 |

Reference: PubChem BioAssay (NCI)
